Entries after “also recorded” stand apart in the source; their conditions may differ. Where a SMILES comes first, the peptide text is derived from it.
Experiments:
[1] = system: sickle cells in HgBss blood; test: Metabisulfite slide test for sickling after APM given orally; assay type: in vivo, patients
Protocol: For comparative purposes, the number of sickle cells relative to the number of normal cells was obtained at 0, 30, 60, 120, 240, 480, and 1440 minutes after administration of APM according to the method given in Example 2.
Blood was drawn before and 120 minutes after treatment with 0, 1.5, 3, or 6 milligrams APM per kilogram body weight in a blinded fashion from the ten patients into heparin tubes, stored in a refrigerator at approximately 10° C. and routinely tested within 36 hours of collection.
Normal blood devoid of abnormal hemoglobin was used as a control. For each heparinized patient blood sample and the normal blood control, experimental samples were prepared containing 0.25 milliliters of normal saline and 0.25 milliliters of blood. […]
To account for natural or non-induced sickling of the experimental samples, a baseline sickling count was obtained for each heparinized patient blood sample and the normal blood control. […] Photomicrographs were taken with a phase contrast microscope at 400 magnification, and the results were obtained from the photomicrographs as the number of sickle cells per 100 cells counted. This number of sickle cells per 100 cells counted was considered the baseline sickling count and was subtracted from the cell counts obtained with the metabisulfite induced samples. […]

[2] = system: whole blood of sickle cell patients; test: Whole blood viscosity by RBC pipette method before and after administration of APM to sickle cell patients; assay type: in vivo; conditions: for blood viscosity after treatment: baseline vs 120 minutes post-treatment, APM 1.5, 3 or 6 mg/kg body weight
Protocol: Blood samples were obtained from ten patients having homozygous HgBss disease or heterozygous Hgbsc disease before and after a blinded administration of APM at 1.5 (low dose), 3 (medium dose), or 6 (high dose) milligrams per kilogram body weight.
Viscosity determinations using the RBC pipette method of Wright and Jenkins (1970, Blood 36:516) were made on each blinded whole blood sample before and 120 minutes after blinded administration of APM. Each measurement was made in triplicate. Control viscosity measurements using saline and water for each patient and normal whole blood were also made to validate the viscosity measurements.
(§1) To measure viscosity, 1.01 cc of the test fluid, i.e., either water, saline or blood, was drawn into an RBC pipette using a 50 cc syringe attached via rubber tubing to the top of the RBC pipette. Using a constant pressure of 20 mm by maintaining the pressure with visual feedback and hand pressure, the amount of time it took for the test fluid to drip out of the RBC pipette was measured with a stopwatch. Each measurement was made in triplicate. Changes in viscosity from baseline for patient blood samples were recorded and compared to normal controls.

[3] = system: sickle cells in HgBss blood; test: Sickling after in vitro addition of APM to patient blood; assay type: cell-based, patients
Protocol: (§2) Samples with high viscosity readings at 480 minutes or 1,440 minutes post-treatment, chosen to represent patients with a validated response to APM who were returning to normal, were divided and treated with an additional 0, 1, or 2 milligrams/milliliter APM in vitro, in an effort to measure whether a second inducible sickling response was possible and if a second response to the in vitro APM addition could be observed. The viscosity of each sample at 480 minutes post-treatment was measured.
Using metabisulfite to reduce HbS to the deoxy form (Daland, G. A. and Castle, W. B. 1948. J Lab Clin Med 33:1082-1088; Nelson, D. A. In Todd-Sanford-Davidsohn Clinical Diagnosis by Laboratory Methods, J. B. Henry, ed. (W.B. Saunders Co., Philadelphia, 1979, vol. 1, p. 1020), a baseline sickling test was run on each experimental sample. The sickling inducing agent was prepared fresh daily as follows: 10 milligrams metabisulfite in 1 milliliter isotonic saline. Multiple test slides were prepared for each experimental sample by adding approximately 300 microliters of the metabisulfite inducing agent to 50 microliters of well mixed blood and placing about 4 drops of the experimental sample onto the surface of a glass slide, placing a coverslip over the sample, and sealing the coverslip with a petroleum jelly bead to prevent oxygen from entering the sample. […]

[4] = clinical trial; osteo- and mixed osteo- and rheumatoid arthritis; cited from earlier work
[5] = system: red blood cells containing HbS; conditions: WO 00/18418; cited from earlier work
[6] = system: patient blood samples; test: Whole blood viscosity after in vitro addition of APM to patient blood samples; assay type: cell-based; conditions: HgBss patients; samples 480 minutes post-treatment; 1 or 2 milligrams/milliliter APM in vitro
Protocol: as §1, §2

[7] = with the exception of patients suffering from phenylketonuria; cited from earlier work

COC(=O)[C@H](Cc1ccccc1)NC(=O)[C@@H](N)CC(=O)O [APM, N-L-alpha-aspartyl-L-phenylalanine 1-methyl ester] (H-Asp-Phe-OMe)
number of sickle cells [1]: reduces the number of sickle cells | blood viscosity after treatment ([2]; HgBss patients): decreased; also recorded: reduces the viscosity | whole blood viscosity ([2]; in vivo): lowers whole blood viscosity | viscosity compared against Pirofsky's change in viscosity vs. hematocrit standard ([2]; patients with sickle cell disease (HgBss)): decreased | viscosity compared against Pirofsky's change in viscosity vs. hematocrit standard ([2]; patients with sickle cell trait (Hbgsc)): increased | blood viscosity after treatment ([2]; sbthal patients): decreased | number of sickle cells [3]: reduces the number of sickle cells | pain and inflammation of arthritis [4]: alleviate the pain and inflammation | capacity of red blood cells containing HbS to sickle with hypoxemia [5]: reduction | viscosity of blood samples after in vitro APM addition, compared to the control [6]: decreased; also recorded: reduces | safety status [7]: generally regarded as safe

Reference: US6919374B1, “Viscosity modulating substance and use thereof” (Oklahoma Medical Research Foundation, priority 1999, dated 2005)
